Data taken from ChEMBL document CHEMBL4312014, “Nitrothiadiazolo[3,2-a]pyrimidines as promising antiglycating agents” (Eur J Med Chem, 2020).
Active and inactive are the calls of the source. The calls are words filed in the database; no cut-off is given here.

Experiments:
[1] = Anti-glycation activity assessed as inhibition of AGE formation by measuring decrease in glycated BSA protein level at 100 uM incubated for 24 hrs in presence of glucose by fluorescence based assay relative to control; assay type: functional
[2] = Anti-glycation activity assessed as inhibition of AGE formation by measuring decrease in glycated BSA protein level at 1000 uM incubated for 24 hrs in presence of glucose by fluorescence based assay relative to control; assay type: functional
[3] = system: Rattus norvegicus; test: Ex vivo inhibition of DPP4 in Wistar rat serum assessed as p-nitroaniline formation at 10 mg/kg, po by incubating compound-treated serum with Gly-Pro-p-nitroanilide substrate and measured for 30 mins by microplate reader analysis; assay type: functional, organism-based
[4] = Metal chelating activity assessed as inhibition of Cu2+ ion-induced oxidation of ascorbic acid compound treated with CuSO4.5H2O for 5 mins followed by ascorbate addition and measured immediately by spectrophotometric analysis
[5] = Anti-glycation activity assessed as inhibition of AGE formation by measuring decrease in glycated BSA protein level incubated for 24 hrs in presence of glucose by fluorescence based assay; assay type: functional
[6] = molecular target: T1, Dipeptidyl peptidase 4 (Homo sapiens, UniProt P27487); assay type: cell-free, Serum
Target sequence in this assay (P27487 whole entry): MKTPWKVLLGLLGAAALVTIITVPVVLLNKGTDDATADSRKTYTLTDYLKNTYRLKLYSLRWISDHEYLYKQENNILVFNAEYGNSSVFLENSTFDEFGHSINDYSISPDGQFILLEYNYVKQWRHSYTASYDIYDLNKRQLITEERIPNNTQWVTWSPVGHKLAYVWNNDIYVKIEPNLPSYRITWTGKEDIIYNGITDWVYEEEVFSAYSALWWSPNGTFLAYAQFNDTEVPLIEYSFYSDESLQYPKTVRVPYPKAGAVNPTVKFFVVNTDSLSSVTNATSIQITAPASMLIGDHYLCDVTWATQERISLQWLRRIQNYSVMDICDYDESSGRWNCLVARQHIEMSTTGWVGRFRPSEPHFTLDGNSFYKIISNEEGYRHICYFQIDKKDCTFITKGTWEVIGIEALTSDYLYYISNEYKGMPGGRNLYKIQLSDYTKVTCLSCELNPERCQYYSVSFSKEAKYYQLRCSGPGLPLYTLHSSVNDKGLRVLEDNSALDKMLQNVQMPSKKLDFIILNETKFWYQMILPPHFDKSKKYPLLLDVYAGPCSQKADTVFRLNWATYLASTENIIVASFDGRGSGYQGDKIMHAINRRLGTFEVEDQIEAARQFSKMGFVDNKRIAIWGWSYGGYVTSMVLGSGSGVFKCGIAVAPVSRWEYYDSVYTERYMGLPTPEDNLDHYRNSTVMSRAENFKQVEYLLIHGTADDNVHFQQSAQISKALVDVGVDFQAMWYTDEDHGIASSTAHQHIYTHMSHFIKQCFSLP

[7] = molecular target: T1, Dipeptidyl peptidase 4; details: Serum, at 100 µM
Target sequence in this assay (P27487 whole entry, looked up): as the sequence (P27487 whole entry) above

[8] = system: Rattus norvegicus; test: Ex vivo inhibition of DPP4 in Wistar rat serum assessed as decrease in p-nitroaniline formation at 10 mg/kg, po by incubating 0 to 4 hrs compound-treated serum with Gly-Pro-p-nitroanilide substrate and measured for 30 mins by microplate reader analysis; assay type: functional, organism-based
[9] = system: Rattus norvegicus; test: Ex vivo inhibition of DPP4 in Wistar rat serum assessed as decrease in p-nitroaniline formation at 10 mg/kg, po by incubating 0 to 2 hrs compound-treated serum with Gly-Pro-p-nitroanilide substrate and measured for 30 mins by microplate reader analysis; assay type: functional, organism-based

| SMILES | inhibition [1] [%] | inhibition [2] [%] | inhibition [3] | IC50 [4] [µM] | IC50 [5] [µM] | IC50 [6] [µM] | inhibition [7] [%] | inhibition [8] | inhibition [9] |
| --- | --- | --- | --- | --- | --- | --- | --- | --- | --- |
| CC(=O)OCCCNc1nc2scnn2c(=O)c1[N+](=O)[O-] | 12.5 | 37.2 | Active | 115 |  |  |  |  |  |
| CCCCNc1nc2scnn2c(=O)c1[N+](=O)[O-] | 32.1 | 77 | Active | 79.1 | 204 |  |  |  |  |
| CC(C)Nc1nc2scnn2c(=O)c1[N+](=O)[O-] | 30 | 69.6 | Active | > 200 | 325 |  |  |  |  |
| CC(=O)OCCCCNc1nc2scnn2c(=O)c1[N+](=O)[O-] | 11.5 | 37.5 | Active | > 200 |  |  |  |  |  |
| O=c1c([N+](=O)[O-])c(NCCO)nc2scnn12 | 29.5 | 44.4 | Active | 86.1 |  |  |  |  |  |
| O=c1c([N+](=O)[O-])c(NCCc2ccc(O)cc2)nc2scnn12 | 43.8 | 76.8 | Active | > 200 | 167 | > 100 | 42.1 |  |  |
| O=c1c([N+](=O)[O-])c(NCCCO)nc2scnn12 | 16.1 | 32.7 | Active | > 200 |  |  |  |  |  |
| CC(=O)OCCNc1nc2scnn2c(=O)c1[N+](=O)[O-] | 44.8 | 50.8 | Active | > 200 |  |  |  |  |  |
| N=C(N)NN [PIMAGEDINE] | 6 | 57.8 |  | > 1000 | 765 |  |  |  |  |
| O=C(O)CCCCC1CCSS1 (stereo not drawn) [LIPOIC ACID, ALPHA] |  |  |  | 68.9 |  |  |  |  |  |
| CC1(C)OCC(CNc2nc3scnn3c(=O)c2[N+](=O)[O-])O1 (stereo not drawn) | 42.1 | 71.4 | Active | 48.1 | 209 |  |  |  |  |
| CC(C)(C)Nc1nc2scnn2c(=O)c1[N+](=O)[O-] | 21.3 | 63.8 | Active | 56 | 181 |  |  |  |  |
| CC(C)CNc1nc2scnn2c(=O)c1[N+](=O)[O-] | 23.1 | 73.9 | Active | 37.2 | 290 |  |  |  |  |
| O=c1c([N+](=O)[O-])c(NCCCCO)nc2scnn12 | 26.1 | 43.6 | Active | > 200 |  |  |  |  |  |
| O=c1c([N+](=O)[O-])c(NCC(O)CO)nc2scnn12 (stereo not drawn) | 10.3 | 33.7 | Active | > 200 |  |  |  |  |  |
| CCCNc1nc2scnn2c(=O)c1[N+](=O)[O-] | 14.9 | 52.5 | Active | 62 |  |  |  |  |  |
| N#C[C@@H]1CCCN1C(=O)CNC12CC3CC(CC(O)(C3)C1)C2 |  |  |  |  |  |  |  | Active |  |
| O=c1c([N+](=O)[O-])c(NCCc2ccc(Cl)cc2)nc2scnn12 | 48.8 | 87.4 |  | > 200 | 134 | 55.9 | 69.8 |  | Active |
| CCc1ccc(CCOc2ccc(CC3SC(=O)NC3=O)cc2)nc1 (stereo not drawn) [PIOGLITAZONE] |  |  |  | 44.1 |  |  |  |  |  |
